# US10842807B2, “Methods of treating neurodegenerative disorders comprising DNA methyltransferase inhibitors” (Washington University, priority 2016, dated 2020)
# “Also recorded” adds a separate entry of the source.
# What was measured:
# Type in all cases: cell-based, mouse
# [1] = test system: Htt-72Q-expressing primary cortical neurons; experiment: MTS cell viability assay in Htt-expressing primary cortical neurons; settings: for viability of Htt-72Q-expressing neurons (MTS assay): DIV 5 cortical neurons transduced with Htt lentivirus, treated with drug or DMSO (=0 μM), MTS at DIV 14, vs. Htt-72Q (0 μM)
# Description: Mouse primary cortical and striatal neurons from embryonic day (E) 15.5 Swiss Webster mouse fetuses (Taconic) were first plated in the minimal essential medium (MEM) containing 10% FBS, 0.45% glucose, 1 mM sodium pyruvate, 2 mM glutamine, 20 U/ml penicillin and 20 μg/ml streptomycin, for 3 h and then maintained in serum-free Neurobasal medium (Life Technologies) containing NeuroCult™ SM1 neuronal supplement ([…] Technologies), 0.5 mM glutamine and 25 μM glutamate for the first 3 d in a humidified incubator (37° C. in 5% CO2). Half of the medium was replaced with Neurobasal medium with SM1 and 0.5 mM glutamine every 3 days. Primary cortical neurons plated on 96-well flat clear bottom black plates (Corning #3904) at 4×10^4 cells/well were infected with Htt exon1 expression lentivirus (Htt-25Q or Htt-72Q) or control empty vector lentivirus at 5 days in vitro (DIV 5). Primary striatal neurons plated on 96-well plates at 1×10^5 cells/well were infected with Htt exon1 expression lentivirus at DIV 4. Viral copy number was adjusted for transduction of neurons on the basis of titer measured using the Lenti-X qRT-PCR titration kit (Clontech), and equal numbers of viral particles of Htt-25Q and Htt-72Q expressing lentiviruses were used for transduction. For the experiments to test effects of DNMT inhibitors, neurons were treated with inhibitors six hours after Htt lentiviral infection. One half of the media was changed every 3 days with media containing new drug. In knockdown experiments in Htt-expressing neurons, primary cortical neurons were cotransduced with Htt-expressing lentivirus and Dnmt shRNA or control shRNA lentivirus at DIV 5. pLKO.1-TRC1-luciferase (Luci) and pLKO.1-TRC2-LacZ were used as control for RNAi with pLKO.1-TRC1-Dnmt3a and pLKO.1-TRC2-Dnmt1, respectively. Lentiviral particles were prepared by transfecting 293LE cells with the lentiviral plasmid of interest along with packaging plasmid psPAX2 and envelope plasmid pCMV-SVG as described previously^86. Four days after transfection, viruses in the conditioned media were collected and purified using Lenti-X Concentrator (Clontech). Primary cortical neurons from BACHD mouse embryos (E15.5) were individually plated into separate wells and treated at DIV 4 with decitabine or vehicle for 3.5 days.
# [2] = test system: Htt-72Q-expressing primary cortical neurons; experiment: Neurofilament (NF) immunofluorescence, neurite degeneration in cortical neurons; settings: fixed at DIV 14; vs. Htt-72Q (0 μM)
# Description: Mouse primary cortical and striatal neurons from embryonic day (E) 15.5 Swiss Webster mouse fetuses (Taconic) were first plated in the minimal essential medium (MEM) containing 10% FBS, 0.45% glucose, 1 mM sodium pyruvate, 2 mM glutamine, 20 U/ml penicillin and 20 μg/ml streptomycin, for 3 h and then maintained in serum-free Neurobasal medium (Life Technologies) containing NeuroCult™ SM1 neuronal supplement ([…] Technologies), 0.5 mM glutamine and 25 μM glutamate for the first 3 d in a humidified incubator (37° C. in 5% CO2). Half of the medium was replaced with Neurobasal medium with SM1 and 0.5 mM glutamine every 3 days. Primary cortical neurons plated on 96-well flat clear bottom black plates (Corning #3904) at 4×10^4 cells/well were infected with Htt exon1 expression lentivirus (Htt-25Q or Htt-72Q) or control empty vector lentivirus at 5 days in vitro (DIV 5). Primary striatal neurons plated on 96-well plates at 1×10^5 cells/well were infected with Htt exon1 expression lentivirus at DIV 4. Viral copy number was adjusted for transduction of neurons on the basis of titer measured using the Lenti-X qRT-PCR titration kit (Clontech), and equal numbers of viral particles of Htt-25Q and Htt-72Q expressing lentiviruses were used for transduction. […]
# For the measurement of neurofilament (NF) immunofluorescence intensity, cortical and striatal neurons cultured in a 96-well plate were fixed in 4% paraformaldehyde (PFA) in PBS for 20 min nine and seven days after Htt lentiviral infection, respectively, permeabilized with 0.1% Triton X-100 in PBS for 15 min at room temperature, and subjected to indirect immunofluorescence with anti-NF (2H3) primary antibody and Alexa Fluor 568-conjugated goat anti-mouse IgG secondary antibody (Life Technologies). […] Following image background subtraction, the NF immunofluorescence intensity was quantified using an ImageJ-based macro. Image capture and quantification of Htt (EM48) immunofluorescence intensity were performed as described for those of NF. […] About 300 nuclei from three random fields in a well were counted. […]
# [3] = test system: 5-mC in Bdnf promoter IV region; experiment: MeDIP-qPCR of Bdnf promoter IV; settings: Htt-72Q-expressing cortical neurons, 0.2 μM vs DMSO
# Excerpt: FIG. 4A-4H illustrate that mutant Htt increased the levels of DNA methylation at Bdnf exon IV regulatory region in primary cortical neurons. (FIG. 4A) Schematic of the mouse Bdnf exon IV regulatory region near the TSS. The positions of CpG sites are indicated relative to the TSS. (FIG. 4B) DIV 5 primary cortical neurons were infected with lentivirus expressing Htt-25Q or Htt-72Q exon 1 fragment; 5 days later, genomic DNA was purified and subjected to bisulfite sequencing analysis. […] Increased DNA methylation was found in mutant Htt-expressing neurons compared to WT Htt-expressing neurons. 28-30 clones from 7 independent experiments were analyzed (See FIG. 11A) for the bisulfite sequencing data from each clone). The number above the black bar (Htt-72Q) represents the fold changes in methylated cytosine relative to the white bar (Htt-25Q) at the indicated position. (FIG. 4C) Genomic DNA was purified from primary cortical neurons transduced as in (B) and subjected to MeDIP with anti-5-mC antibody followed by qPCR. […]
# Genomic DNA was isolated from primary cortical neurons using QIAamp DNA Mini Kit (QIAGEN) and fragmented by sonication using Bioruptor (Diagenode). […] The percentage input was calculated by first normalizing IP to input DNA using the formula (2^[(Ct(10% input)-3.32)-Ct(IP)]×100) as described previously^89. […]
# [4] = Htt-72Q cortical neurons, MTS assay (FIG. 1B)
Structure (SMILES),viability of Htt-72Q-expressing neurons (MTS assay) [1],"concentration giving nearly full protection [1, 4]","lowest concentration with significant neuroprotection [1, 4]","Htt-72Q-induced neurite degeneration (NF immunofluorescence intensity), cortical neurons [2]",levels of 5-mC in Bdnf promoter IV region (MeDIP) [3]
"Nc1ncn([C@H]2C[C@H](O)[C@@H](CO)O2)c(=O)n1 [decitabine, 5-aza-2′-deoxycytidine]",increased the viability of Htt-72Q-expressing neurons; also recorded: increased the viability of mutant Htt-expressing neurons,0.2 µM,0.02 µM,blocked Htt-72Q-induced neurite degeneration,decreased levels of 5-mC in Bdnf promoter IV region
"Nc1nc(=O)n([C@H]2C[C@H](O)[C@@H](CO)O2)cc1F [FdCyd, 5-fluoro-2′-deoxycytidine]",increased the viability of Htt-72Q-expressing neurons,,,protected neurons from Htt-72Q-induced neurite degeneration,decreased levels of 5-mC in Bdnf promoter IV region
